Data from article PMC6761391, “Blockade of Mas Receptor or Mas-Related G-Protein Coupled Receptor Type D Reduces Portal Pressure in Cirrhotic but Not in Non-cirrhotic Portal Hypertensive Rats” (Frontiers in Physiology, 2019).
Counter-ions that a name gives are not always drawn. Non-standard residues stand in square brackets, D forms with d. Residues, ends and D or L forms follow the SMILES beside them.

Legend:
[1] = In vivo angiotensin (1-7) peptide metabolism assay (plasma concentration by radioimmunoassay); details: BDL rats, 10 μg/kg i.v. bolus; for time of peak plasma concentration post-injection: blood at 30 s, 1, 2, 5 min, Ang-(1-7) radioimmunoassay (cross-reactivity for A779 and D-Pro not determined); for time of peak plasma concentration post-injection / time for circulating peptide levels to return to baseline levels after injection: 4 rats per group, plasma; for fate in the rat circulation following a bolus injection: circulating concentrations by radioimmunoassay; for time for circulating peptide levels to return to baseline levels after injection: Ang-(1-7) radioimmunoassay
Procedure: To determine the longevity of the angiotensin peptides in the rat circulation, a separate set of experiments was carried out using BDL rats. Four weeks after BDL, the rats were anesthetized with ketamine/xylazine mixture and the femoral artery and vein were cannulated using PE-10 catheters as described previously ([Grace et al., 2013]). After 30 min of stabilization, 1 ml of blood was drawn from the femoral artery as the baseline sample into an Eppendorf tube containing protease inhibitor mix (20 μl/ml of blood: 50 mmol/L Na2 EDTA, 0.2 mol/L N-ethylmaleimide, 21,000 U/ml aprotonin, 5 mg/ml leupeptin, and 1 mg/ml pepstatin; prepared fresh daily and kept on ice) to prevent breakdown of angiotensin peptides. Injection of either MasR or MrgD blockers, A779 or D-Pro (10 μg/kg), respectively, was performed thereafter via the femoral vein catheter. Blood samples were collected at 30 s, 1, 2, and 5 min after injection. A separate group of rats was injected with Ang-(1-7) peptide (10 μg/kg) and blood was collected as before. After completion of the experiment, the rats were euthanized by exsanguination. Blood samples were centrifuged at 4,000 rpm for 10 min to harvest plasma. Radioimmunoassay for Ang-(1-7) (Prosearch International, Australia, Pty Ltd) was performed to determine plasma concentration of peptide blockers and Ang-(1-7) at different time points. Twelve BDL rats were used for the experiment, with four rats in each of the three treatment groups. The extent of cross-reactivity for D-Ala (A779) and D-Pro was not determined for the Ang-(1-7) radioimmunoassay.

[2] = tested on: MrgD; details: HEK293 cells transfected with MrgD; ref Tetzner et al., 2016; cited from earlier work
From the text: There is some evidence that ATR2 also mediates Ang-(1-7) action. This was based on observations that the vasodilatory effects of Ang-(1-7) in vivo ([Heitsch et al., 2001]) and ex vivo and in vitro ([Tesanovic et al., 2010]; [Grace et al., 2013]) were inhibited by AT2R blockade with PD123319.

[3] = tested on: non-cirrhotic partial portal vein ligated (PPVL) rats; test: Portal pressure (PP) measurement in non-cirrhotic PPVL rats after intravenous bolus injection; format: in vivo, Sprague Dawley rats; details: non-cirrhotic PPVL rat model; single i.v. bolus (A779, D-Pro 10 μg/kg; PD123319 1 mg/kg)
Procedure: (§1) Eight-week-old male Sprague Dawley rats (300–350 g BW) were used to induce non-cirrhotic portal hypertension by partial portal vein ligation (PPVL) surgery as described previously ([Kahn et al., 1988]). Briefly, under gaseous anesthesia, a median laparotomy was performed and the portal vein was identified. A 19G needle was placed alongside the length of the portal vein, and a 4/0 silk suture was tied around the portal vein and the needle. The needle was then removed creating a calibrated stenosis in the portal vein, partially obstructing the portal flow. The abdominal wall was closed in two layers using sterile 4/0 silk suture. Two weeks after PPVL, the rats were used for receptor blocker infusion experiments.
(§2) Four weeks after BDL, 10 weeks after CCl4 and 2 weeks after PPVL, the rats were anesthetized with ketamine/xylazine mixture (75 and 10 mg/kg BW, respectively, Therapon Pty Ltd). A median laparotomy was performed, and a small PE 10 polyethylene catheter (Microtube Extrusions, NSW, Australia) was inserted into a small ileocecal vein and advanced to the portal vein to measure PP. […]
(§3) The baseline values of PP and MAP were recorded prior to injection of the drugs. […] The dose was calculated for each individual rat according to body weight. […]

[4] = tested on: cirrhotic carbon tetrachloride (CCl4) injected rats; test: Portal pressure (PP) measurement in cirrhotic CCl4 rats after intravenous bolus injection; format: in vivo, Sprague Dawley rats
Procedure: (§4) Six-week-old male Sprague Dawley rats (200–250 g BW) were used to induce cirrhosis and PHT by injections of carbon tetrachloride (CCl4) as described previously ([Fallowfield et al., 2014]). Rats were housed in a controlled environment as described above. CCl4 was administered twice weekly via intraperitoneal injections, at a dose of 1 ml/kg, mixed with 1:1 ratio with olive oil. After 10 weeks of CCl4 administration, the rats were used for receptor blocker infusion experiments.
(§5) Four weeks after BDL, 10 weeks after CCl4 and 2 weeks after PPVL, the rats were anesthetized with ketamine/xylazine mixture (75 and 10 mg/kg BW, respectively, Therapon Pty Ltd). A median laparotomy was performed, and a small PE 10 polyethylene catheter (Microtube Extrusions, NSW, Australia) was inserted into a small ileocecal vein and advanced to the portal vein to measure PP. A skin incision was made in the left inner thigh to identify the left femoral artery and cannulated with a PE 10 catheter to measure the mean arterial pressure (MAP). Portal vein and femoral artery catheters were connected to a highly sensitive pressure transducer (Zultek Engineering, Melbourne, VIC, Australia). The left femoral vein was cannulated with a similar PE 10 catheter for bolus injections of the receptor blockers. After insertion of the catheters, the rats were allowed to stabilize hemodynamically for 30 min prior to interventions.
The baseline values of PP and MAP were recorded prior to injection of the drugs. For a single receptor blocker experiments, either MasR blocker A779 (10 μg/kg) ([Grace et al., 2013]), MrgD blocker D-Pro (10 μg/kg), or AT2R blocker PD123319 (1 mg/kg) ([Yang et al., 2011]) was administered intravenously via the femoral vein catheter as a single bolus injection. The dose was calculated for each individual rat according to body weight. The bolus injection was prepared by dissolving a stock solution of […] (A779 or D-Pro) or 10 mg/ml (PD123319) in 0.9% NaCl to make a minimum injectable volume of 0.25 ml. This is to avoid variations in pressure due to adding volume to the circulation. After the bolus injection of the drug, the catheter was slowly flushed with 0.25 ml 20 IU/ml heparinized saline. Measurement of PP and MAP was continued for additional 30 min after injection (Figure 2A). Each treatment group of BDL, CCl4, and PPVL consisted of six to seven rats. For each model, a separate control group of animals (n = 6 per group) received saline injections for comparison with the treatment effects.
A separate set of experiments were carried out in the two cirrhotic PHT rat models (BDL and CCl4) to investigate whether the detrimental effects of AT1R blocker losartan on systemic arterial pressure can be counteracted by a second injection of either MasR or MrgD blockers; A779 or D-Pro, respectively. In this study, a bolus injection of losartan was administered and 20 min later, a bolus injection of either A779 or D-Pro was given. The pressure measurement was carried out for additional 20 min after the second injection (Figure 2B). A total of 18 BDL and 18 CCl4 rats were used (n = 6 per treatment group).

[5] = tested on: cirrhotic carbon tetrachloride (CCl4) injected rats; test: Mean arterial pressure (MAP) measurement in CCl4 rats; format: in vivo, Sprague Dawley rats; details: CCl4 model
Procedure: as §4, §5
(§6) The baseline values of PP and MAP were recorded prior to injection of the drugs. For a single receptor blocker experiments, either MasR blocker A779 (10 μg/kg) ([Grace et al., 2013]), MrgD blocker D-Pro (10 μg/kg), or AT2R blocker PD123319 (1 mg/kg) ([Yang et al., 2011]) was administered intravenously via the femoral vein catheter as a single bolus injection. The dose was calculated for each individual rat according to body weight. The bolus injection was prepared by dissolving a stock solution of […] (A779 or D-Pro) or 10 mg/ml (PD123319) in 0.9% NaCl to make a minimum injectable volume of 0.25 ml. This is to avoid variations in pressure due to adding volume to the circulation. […]

[6] = tested on: cirrhotic bile duct ligated (BDL) rats; test: Mean arterial pressure (MAP) measurement in BDL rats; format: in vivo, Sprague Dawley rats; details: BDL model
Procedure: (§7) Eight-week-old male Sprague Dawley rats (300–350 g BW) underwent bile duct ligation surgery (BDL) to induce cirrhosis and PHT. Rats were housed in a controlled environment with 12:12-h light to dark cycle with controlled temperature (22–24°C) and fed standard rat chow ad libitum (Norco, Lismore NSW, Australia) and water. After 1 week of acclimatization, the rats were anesthetized with isoflurane gaseous anesthesia (Therapon Pty Ltd., Victoria, Australia). The rats were also given a single dose of carprofen (5 mg/kg, Rimadyl, Australia) subcutaneously prior to surgery to limit post-operative discomfort. BDL surgery was performed as previously described ([Herath et al., 2007]). Briefly, a midline incision was made in the abdomen to enter the peritoneal cavity. The common bile duct was located and double ligated with 4/0 silk suture. The bile duct was then transacted between two ligatures. Intraoperatively, animals were kept warm on a heat pad and received 0.9% NaCl 10 ml/kg. The abdominal wall was closed in two layers using sterile 4/0 silk suture. Four weeks after BDL surgery, the rats were used for receptor blocker infusion experiments as described below.
as §5, with “The left femoral vein was cannulated with a similar PE 10 catheter for bolus injections of the receptor blockers. After insertion of the catheters, the rats were allowed to stabilize hemodynamically for 30 min prior to interventions.” left out
as §3

[7] = tested on: cirrhotic bile duct ligated (BDL) rats; test: Portal pressure (PP) measurement in cirrhotic bile duct ligated (BDL) rats after intravenous bolus injection; format: in vivo, Sprague Dawley rats
Procedure: as §7, §5, §6

[8] = tested on: non-cirrhotic partial portal vein ligated (PPVL) rats; test: Mean arterial pressure (MAP) measurement in PPVL rats; format: in vivo, Sprague Dawley rats; details: single i.v. bolus (A779, D-Pro 10 μg/kg; PD123319 1 mg/kg)
Procedure: as §1, §2, §3

[9] = tested on: MasR; details: ref Santos et al., 2003; cited from earlier work
From the text: Although it is well known that Ang (1-7) produces its effects by binding to MasR and MrgD ([Santos et al., 2003]; [Tetzner et al., 2016]), early cell culture studies have reported some actions of Ang-(1-7) were mediated via the subtypes of AT1R ([Muthalif et al., 1998]; [[…] et al., 2001]). Some studies also proposed that MasR may interact with AT1R by receptor hetero-dimerization or alterations in post-receptor signaling ([Castro et al., 2005]; [Kostenis et al., 2005]; [Tesanovic et al., 2010]; [Castelo-Branco et al., 2017]; [O'Neill et al., 2017]), which in turn leads to the inhibition o ...

[10] = CCl4 model, single i.v. bolus (A779, D-Pro 10 μg/kg; PD123319 1 mg/kg)
[11] = CCl4 model, losartan 1 mg/kg i.v. bolus
[12] = losartan 1 mg/kg i.v. bolus, 12 to 14 rats
[13] = BDL model, losartan 1 mg/kg i.v. bolus

CC[C@H](C)[C@H](NC(=O)[C@H](Cc1ccc(O)cc1)NC(=O)[C@@H](NC(=O)[C@H](CCCNC(=N)N)NC(=O)[C@@H](N)CC(=O)O)C(C)C)C(=O)N[C@@H](Cc1cnc[nH]1)C(=O)N[C@H](C)C(=O)O [A779] (H-DRVYIH[dA]-OH)
time of peak plasma concentration post-injection [1]: 2 min | fate in the rat circulation following a bolus injection [1]: rapidly degraded in the rat circulation | time for circulating peptide levels to return to baseline levels after injection [1]: ≤ 5 min

CC[C@H](C)[C@H](NC(=O)[C@H](Cc1ccc(O)cc1)NC(=O)[C@@H](NC(=O)[C@H](CCCNC(=N)N)NC(=O)[C@@H](N)CC(=O)O)C(C)C)C(=O)N[C@@H](Cc1c[nH]cn1)C(=O)N1CCC[C@H]1C(=O)O [Ang-(1-7), Angiotensin (1-7)]
time of peak plasma concentration post-injection [1]: 2 min | time for circulating peptide levels to return to baseline levels after injection [1]: ≤ 5 min

CC[C@H](C)[C@H](NC(=O)[C@H](Cc1ccc(O)cc1)NC(=O)[C@@H](NC(=O)[C@H](CCCN=C(N)N)NC(=O)[C@@H](N)CC(=O)O)C(C)C)C(=O)N[C@@H](Cc1c[nH]cn1)C(=O)N1CCC[C@@H]1C(=O)O [D-Pro, D-Pro^7-Ang-(1-7)]
time of peak plasma concentration post-injection [1]: 2 min | fate in the rat circulation following a bolus injection [1]: rapidly degraded in the rat circulation | time for circulating peptide levels to return to baseline levels after injection [1]: ≤ 5 min

Cc1cc(Cn2cnc3c2C[C@@H](C(=O)O)N(C(=O)C(c2ccccc2)c2ccccc2)C3)ccc1N(C)C [PD123319]
block of Ang-(1-7)-stimulated cAMP release [2]: completed blocked | effect on portal pressure (PP) [3]: failed to reduce PP | maximum reduction in portal pressure [4, 10]: 4.8% | time for which the reduction in PP persisted after injection [4, 10]: up to 20 min | change in portal pressure (PP) from baseline ([4]; CCl4 rats, single i.v. bolus (A779, D-Pro 10 μg/kg; PD123319 1 mg/kg), measured at 5 min post-injection, six to seven rats per group): significant reduction in PP | effect on mean arterial pressure (MAP) ([5]; single i.v. bolus (A779, D-Pro 10 μg/kg; PD123319 1 mg/kg)): no effect on MAP | effect on mean arterial pressure (MAP) ([6]; single i.v. bolus PD123319 1 mg/kg): no effect on MAP | portal pressure reduction ([7]; BDL rats, PD123319 1 mg/kg i.v. bolus): not statistically significant | effect on mean arterial pressure (MAP) [8]: no effect on MAP

CCCCc1nc(Cl)c(CO)n1Cc1ccc(-c2ccccc2-c2nn[nH]n2)cc1 [losartan, losartan hydrochloride]
duration of portal pressure lowering effect post-intervention [4, 11]: up to 30 min | start of PP reduction post-injection [4, 11]: 5 min | change in PP from baseline pressure ([4]; CCl4 model, losartan 1 mg/kg i.v. bolus, 12 to 14 rats): significant (p < 0.01) reduction in PP | start of MAP reduction post-injection ([5]; losartan 1 mg/kg i.v. bolus): 10 min | change in MAP from baseline [5, 12]: significantly (p < 0.01) reduced MAP | start of MAP reduction post-injection ([6]; losartan 1 mg/kg i.v. bolus): 5 min | change in MAP from baseline [6, 12]: significantly (p < 0.01) reduced MAP | duration of portal pressure lowering effect post-intervention [7, 13]: up to 30 min | start of PP reduction post-injection [7, 13]: 5 min | change in PP from baseline pressure ([7]; BDL model, losartan 1 mg/kg i.v. bolus, 12 to 14 rats): significant (p < 0.01) reduction in PP | ligand for MasR [9]: not a ligand for MasR
